{"source": "patent US20220073557A1", "about": "“FLUORINATED BILE ACIDS” (NZP UK LIMITED, priority 2018, published 2022)", "key": {"[1]": {"tested_on": "sporadic PD patient fibroblasts", "experiment": "Cellular ATP levels (ATPlite, normalised to CyQUANT DNA content) in sporadic PD patient fibroblasts", "assay_type": "cell-based", "conditions": "Homo sapiens, Fibroblast, 24 h", "procedure": "Fibroblasts were cultured in DMEM (Invitrogen) and routinely subcultured every 3-5 days using trypsin to dissociate them.\nThe ATP protocol is generally as described in Mortiboys et al, “Mitochondrial function and morphology are impaired in parkin-mutant fibroblasts”, Ann Neurol. 2008 November; 64(5):555-65. Briefly, fibroblasts were cultured as and plated into white 384 well plates with 5000 cells per well in 50 μl of media volume. The plates are left overnight in an incubator to allow the fibroblasts to adhere to the plate surface. The following morning the Glucose based medium is replaced with 25 μl of Galactose based medium. The compounds are added to the plates using a ECHO 550 liquid handling system. The wells were dosed to provide an 8-point concentration range of 0.06 nM-300 nM of compound. After dosing the wells are topped up with a further 25 μl of Galactose based medium and then left in an incubator for 24 hours. Following this incubation the medium is removed from the plate and the wells are washed twice with sterile PBS. The wells are filled with 25 μl of Sterile PBS followed by 12.5 μl of Lysis solution from the ATPlite™ Luminescence ATP detection assay system (Perkin Elmer), including 16 cell free wells to use as blank controls. The plate is then placed on a rotary shaker for 5 mins at 700 rpm. Following the shaking 12.5 μl of ATP substrate solution (Perkin Elmer) is added to each well and a further 5 min of shaking. The plate is then placed in darkness for 10 minutes prior to reading. Using a PHERAStar® plate reader, luminescence intensity is recorded. Following the ATP assay the plates are immediately assayed for DNA content in a CyQUANT® assay.\nImmediately following The ATP assay DNA content is assessed with the CyQUANT® NF Cell Proliferation Assay Kit (ThermoFisher). CyQUANT® buffer is prepared immediately before the assay and is comprised of 1 ul CyQUANT® dye per ml×1 HBSS solution. 12.5 ul of CyQUANT® buffer is added to each well. Plate left in incubator for 1 hour then read on a PHERAStar® Plate reader with excitation at 497 nm and emission at 520 nm. ATP Quantification for each well is determined using the following formula: […]\nAfter the assays had been repeated in triplicate per line and compound the data was then inputted into Graph pad Prism 7 software suite where a dose response curve is generated using the default “[Agonist] vs response (three parameters)” equation.\nFrom this EC50 values, lowest response and maximal response were taken and used to calculate the Geometric mean between the 5 different lines assessed.\nCellular ATP levels were measured in fibroblasts from 6 (Table 3) or 3 (Table 4) patients with sporadic Parkinson's disease when treated with Compounds of the invention or Comparator compounds. The results are shown in Tables 3 and 4, where “Bottom”=max response with lowest dose of compound (0.06 nM) and “top”=max response with highest dose of compound (300 nM)."}, "[2]": {"tested_on": "sporadic PD patient fibroblast lines", "experiment": "Seahorse assay (oxygen consumption, extracellular acidification rate) in sPD fibroblasts", "assay_type": "cell-based, human", "procedure": "Fibroblasts are plated into Seahorse 24 well plates with 50,000 cells per well. Cells are left to attach for 2 days. Media is changed to Seahorse DMEM media with glucose and sodium pyruvate and left to equilibrate at 37 degrees normal air CO2 for 1 hour. The plate is entered into the Seahorse machine and run on a program of mix (2 minutes), wait (3 minutes) and measure (3 minutes). After three measurements of basal respiration and ECAR; 0.5 μM oligomycin is injected after which another three measurements are taken; then 0.5 μM of FCCP is injected and three measurements taken and finally 1 μM rotenone is injected and three measurements taken. After all measurements are complete, cells are stained with 10 μM Hoescht and imaged using the InCell to count the number of cells per well for normalisation. This classical ritochondrial stress test experimental protocol allows us to calculate the basal mitochondrial respiration, ATP linked respiration (the amount which is coupled to ATP generation), the maximal and spare respiratory capacity, the non-mitochondrial respiration rate and the extracellular acidification rate which is a proxy measure of glycosolysis."}, "[3]": {"tested_on": "dopaminergic neurons derived from sPD patients (iNeurons)", "experiment": "Dopamine ELISA in iNeurons", "assay_type": "cell-based, human", "conditions": "untreated sPD 0", "procedure": "Briefly, iNPCs are plated in a 6-well plate and cultured for 2 days in DMEM/F-12 medium with Glutamax™ supplemented with 1% NEAA, 2% B27 (Gibco) and 2.5 μM of DAPT. On day 3, DAPT is removed and the medium is supplemented with 1 μM smoothened agonist (SAG) and FGF8 (75 ng/ml) for additional 10 days. Neurons are replated at this stage. Subsequently SAG and FGF8 are withdrawn and replaced with BDNF (30 ng/ml), GDNF (30 ng/ml), TGF-b3 […] and dcAMP (2 mM, Sigma) for 15 days.\nDopamine ELISA is performed using Dopamine research ELISA kit (Labor Diagnostika Nord GmbH&Co. KG) as per manufacturers instructions. Dopamine release is obtained incubating the cells at 37° C. using three different conditions at the same time per line. Medium is removed in all wells then the first well is incubated with HBSS with Ca^2+ and Mg^2+ (Gibco by Life Technologies) for 30 minutes, the second well is incubated in HBSS with Ca^2+ and Mg^2+ for 15 minutes and then 56 mM KCl (Fisher chemical) is added for another 15 minutes and the third well is incubated with HBSS without Ca^2+ and Mg^2+ (Gibco by Life Technologies) but with 2 mM EDTA for 15 min and then 56 mM KCl is added for another 15 minutes. Straight away media is collected in an eppendorf and cells are harvested using Accutase®, centrifuge at 400 g for 4 min and resuspended in 10 μl of PBS. […]"}, "[4]": {"tested_on": "mitochondrial respiratory chain complex I", "experiment": "Complex I assay, whole brain homogenate of dosed wild type mice", "assay_type": "in vivo", "conditions": "wild type mouse whole brain homogenate, FIG. 3", "procedure": "Ex vivo mice brain was homogenated in a buffer of 250 mM sucrose, 20 mM HEPES, 3 mM EDTA, pH 7.5 at 4° C. Homogenisation was carried out using a Dounce homogenizer, for cortex samples, and by repetitive passage through a 0.5 mm syringe for isolated striatum. Samples were then incubated with 30 μl of detergent from the AbCam colorimetric Complex I assay kit on ice for 20 minutes. Samples are then centrifuged at 13,000 rpm for 30 mins. Triplicate samples per condition were blocked using the kit blocking buffer on the AbCam colorimetric Complex I assay kit plate for 3 hours. Samples are then washed using the kit wash buffer 3 times before the addition of the kit assay buffer containing NADH and colorimetric dye. The assay plate is read on a plate reader in a kinetic assay programme reading 450 nm in a 30 second interval for 50 minutes."}}, "data": [{"molecule": "C[C@H](CCC(=O)O)[C@H]1CC[C@H]2[C@@H]3[C@@H](O)C[C@@H]4C[C@@H](O)C(F)(F)C[C@]4(C)[C@H]3CC[C@]12C", "note": "[Compound 7, 2,2-difluoro-3β,7β-dihydroxy-5β-cholanic acid]", "values": [{"measurement": "activity at 60 pM", "setting": "[1]; read-out: Cellular ATP levels Bottom (% of vehicle treated)", "result": 112, "unit": "%"}, {"measurement": "EC50", "setting": "[1]; read-out: Cellular ATP levels EC50 (nM)", "result": 0.429, "unit": "nM"}, {"measurement": "activity at 0.3 µM", "setting": "[1]; read-out: Cellular ATP levels Top (% of vehicle treated)", "result": 172, "unit": "%"}, {"measurement": "Mitochondrial respiration (basal, maximal and ATP linked respiration; oxygen consumption)", "setting": "[2]; 6 sPD fibroblast lines, dosed at EC90 (UDCA 100 nM, Compound 7 50 nM), FIG. 1A-1C", "result": "significantly improves all three mitochondrial parameters"}, {"measurement": "Extracellular acidification rate (ECAR, proxy measure of glycolysis)", "setting": "[2]; 6 sPD fibroblasts, FIG. 2", "result": "significantly improved"}, {"measurement": "EC90", "setting": "[2]; Homo sapiens, Fibroblast, read-out: EC90 concentration", "result": 50, "unit": "nM"}, {"measurement": "Dopamine level (increase in dopamine release)", "setting": "[3]", "result": "~5", "unit": "% increase in"}, {"measurement": "Increase in Complex I activity compared to untreated controls", "setting": "[4]; 4 mg/kg dose", "result": "approximately 380%"}, {"measurement": "Increase in Complex I activity compared to untreated controls", "setting": "[4]; 12 mg/kg dose", "result": "approximately 800%"}]}]}
